This is an account of results in PMC11243196, “Identification of Benzothiazoles Bearing 1,3,4-Thiadiazole as Antiproliferative Hybrids Targeting VEGFR-2 and BRAF Kinase: Design, Synthesis, BIO Evaluation and In Silico Study” (Molecules, 2024).

Read-outs that look alike come from different tables or passages of the source.

Data set [1] deals with HePG-2, HCT-116 and MCF-7 cell lines. The data set is described as follows: MTT antiproliferative assay, range over the three cancer cell lines. It is filed as cell-based. Particulars: Homo sapiens. As for the experimental part:
Sorafenib was used as a positive control medication.
As previously documented, the in vitro anticancer efficacy of the produced hybrids was evaluated using an MTT test. The used cell lines was bought from Vacsera (Giza, Egypt).
A general note: Tetrazolium assays rely on reduction of a dye to a coloured formazan, in cell work by metabolically active cells.

Data set [2] addresses VEGFR-2 (Homo sapiens, UniProt P35968). The data set can be described thus: In vitro VEGFR-2 kinase inhibitory assay. The class given is biochemical. As for the experimental part: […]. The in vitro assays were carried out as previously described.
Data set [3] has as its system WI-38 cells. The data set can be described thus: Cytotoxicity against normal human cells, WI-38. It is filed as cell-based. The conditions noted are these: normal lung cell line WI-38.
Data set [4] relates to MCF-7. The data set can be described thus: MTT antiproliferative assay, MCF-7. It is filed as cell-based. The conditions noted are these: Homo sapiens, MCF7; breast cancer MCF-7, MTT.
For data set [5], the target named is BRAF (V600E) (Homo sapiens, UniProt P15056, V600E). The data set can be described thus: In vitro BRAF (V600E) kinase inhibitory assay. It is filed as biochemical.
Sequence of BRAF (V600E) (P15056 whole entry V600E): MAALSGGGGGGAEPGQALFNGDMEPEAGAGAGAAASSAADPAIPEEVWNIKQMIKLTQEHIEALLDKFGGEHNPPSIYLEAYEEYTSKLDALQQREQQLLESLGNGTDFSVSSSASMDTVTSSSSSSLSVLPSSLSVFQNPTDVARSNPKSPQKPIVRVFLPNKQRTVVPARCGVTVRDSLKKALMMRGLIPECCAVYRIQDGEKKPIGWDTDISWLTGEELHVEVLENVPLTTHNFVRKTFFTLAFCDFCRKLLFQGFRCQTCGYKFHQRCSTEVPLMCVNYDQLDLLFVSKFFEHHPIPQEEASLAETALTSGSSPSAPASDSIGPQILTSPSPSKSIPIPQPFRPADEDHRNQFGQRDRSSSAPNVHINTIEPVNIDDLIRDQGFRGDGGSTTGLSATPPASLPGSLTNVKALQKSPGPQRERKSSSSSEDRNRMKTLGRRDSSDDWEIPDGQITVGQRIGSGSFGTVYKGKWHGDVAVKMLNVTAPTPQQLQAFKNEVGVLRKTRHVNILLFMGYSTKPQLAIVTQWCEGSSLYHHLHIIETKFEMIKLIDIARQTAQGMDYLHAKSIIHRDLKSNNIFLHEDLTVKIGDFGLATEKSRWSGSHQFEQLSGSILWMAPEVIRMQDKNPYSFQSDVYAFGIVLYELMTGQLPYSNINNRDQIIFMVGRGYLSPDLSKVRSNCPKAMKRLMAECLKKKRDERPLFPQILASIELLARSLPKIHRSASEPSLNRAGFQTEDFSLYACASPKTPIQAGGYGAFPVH
For data set [6], the system named is HCT-116. The data set is described as follows: MTT antiproliferative assay, HCT-116. The class given is cell-based. Particulars: Homo sapiens, HCT-116, read-out: IC50 (µM) HCT-116.
The test system of data set [7] is HePG-2. The data set can be described thus: MTT antiproliferative assay, HePG-2. The conditions noted are these: Homo sapiens, HepG2; hepatocellular carcinoma HePG-2, MTT. The class given is cell-based.
The mark [8] stands for this setting: one range for the group 4a, 4f, 4l, 4r over three cancer cell lines, read-out: IC50 values ranging, against three cancer cell lines.
The mark [9] stands for this setting: read-out: IC50 range of the compound over the cancer cell lines.
Setting [10] is: range over HePG-2, HCT-116, MCF-7, read-out: IC50 range of the compound over the cancer cell lines.

Sequence of VEGFR-2 (P35968 20-1356): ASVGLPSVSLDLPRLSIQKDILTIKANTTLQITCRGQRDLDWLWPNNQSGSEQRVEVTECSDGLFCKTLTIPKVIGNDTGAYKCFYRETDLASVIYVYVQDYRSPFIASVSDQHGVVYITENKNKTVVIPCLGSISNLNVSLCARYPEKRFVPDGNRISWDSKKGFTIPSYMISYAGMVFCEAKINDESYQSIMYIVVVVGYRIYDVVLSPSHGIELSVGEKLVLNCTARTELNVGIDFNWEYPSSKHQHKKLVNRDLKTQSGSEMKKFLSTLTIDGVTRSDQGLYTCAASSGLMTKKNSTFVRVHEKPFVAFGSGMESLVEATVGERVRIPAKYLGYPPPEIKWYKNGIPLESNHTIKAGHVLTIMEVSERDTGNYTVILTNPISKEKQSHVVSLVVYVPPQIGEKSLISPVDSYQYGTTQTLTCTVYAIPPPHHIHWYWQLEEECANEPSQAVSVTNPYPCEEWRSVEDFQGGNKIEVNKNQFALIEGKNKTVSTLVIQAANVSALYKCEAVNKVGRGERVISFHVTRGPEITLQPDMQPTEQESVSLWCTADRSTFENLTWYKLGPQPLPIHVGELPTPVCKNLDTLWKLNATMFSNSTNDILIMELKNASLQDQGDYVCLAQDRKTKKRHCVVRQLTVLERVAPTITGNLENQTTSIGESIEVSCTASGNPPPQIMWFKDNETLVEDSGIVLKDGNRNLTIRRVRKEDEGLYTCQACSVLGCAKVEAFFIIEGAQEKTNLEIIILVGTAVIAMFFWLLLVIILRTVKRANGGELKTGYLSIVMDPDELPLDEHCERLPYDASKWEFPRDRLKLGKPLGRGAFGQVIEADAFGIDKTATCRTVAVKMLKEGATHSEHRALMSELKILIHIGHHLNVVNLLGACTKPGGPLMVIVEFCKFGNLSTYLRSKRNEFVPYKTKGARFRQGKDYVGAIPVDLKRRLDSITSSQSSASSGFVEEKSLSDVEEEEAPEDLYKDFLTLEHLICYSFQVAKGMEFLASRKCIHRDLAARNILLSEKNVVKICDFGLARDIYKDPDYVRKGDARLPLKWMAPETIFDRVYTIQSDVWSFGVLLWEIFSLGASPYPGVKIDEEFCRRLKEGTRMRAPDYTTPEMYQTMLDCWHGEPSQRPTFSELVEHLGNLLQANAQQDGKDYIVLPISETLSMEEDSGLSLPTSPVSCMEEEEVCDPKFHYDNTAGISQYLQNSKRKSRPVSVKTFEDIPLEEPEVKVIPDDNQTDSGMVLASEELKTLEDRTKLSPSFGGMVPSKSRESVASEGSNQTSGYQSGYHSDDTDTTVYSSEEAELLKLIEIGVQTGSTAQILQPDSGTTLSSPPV

Turning to `O=C(CSc1nnc(NC(=O)Nc2ccccc2)s1)Nc1nc2ccccc2s1` [4a, N-(Benzo[d]thiazol-2-yl)-2-((5-(3-phenylureido)-1,3,4-thiadiazol-2-yl)thio)acetamide], the melting point (as a rule, the temperature, or range, at which the solid turns liquid) lay in the range of 273 to 275 °C. Moreover, in data set [1] (setting [8]), the IC50 (usually the midpoint of a concentration-inhibition curve) is 3.58 to 15.4 µM. Further, the IC50 in data set [1] (setting [9]) lay in the range of 5.91 to 12.9 µM. In addition, the IC50 in data set [2] was found to be 0.342 µM. Also, inhibition in data set [3] was half-maximal at 66.2 ± 3.5 µM (IC50). The same compound displayed a concentration for half-maximal inhibition (IC50) in data set [4] of 5.91 ± 0.3 µM. The IC50 in data set [5] was 0.677 µM. The IC50 in data set [6] stood at 9.94 ± 0.8 µM. Besides, in data set [7], the IC50 turned out to be 12.9 ± 0.9 µM.
Consider `Cc1ccc(NC(=O)Nc2nnc(SCC(=O)Nc3nc4ccccc4s3)s2)cc1` [4b, N-(Benzo[d]thiazol-2-yl)-2-((5-(3-(p-tolyl)ureido)-1,3,4-thiadiazol-2-yl)thio)acetamide], for which the IC50 was 46.5 to 61.8 µM in data set [1] (setting [10]); 81 ± 4.2 µM in data set [3]; 46.5 ± 2.6 µM in data set [4]; 61.8 ± 3.3 µM in data set [6]; 48.2 ± 2.5 µM in data set [7].
In the case of `COc1ccc(NC(=O)Nc2nnc(SCC(=O)Nc3nc4ccccc4s3)s2)cc1` [4c, N-(Benzo[d]thiazol-2-yl)-2-((5-(3-(4-methoxyphenyl)ureido)-1,3,4-thiadiazol-2-yl)thio)acetamide], the IC50 in data set [1] (setting [10]) was 42.2 to 65.5 µM; in data set [3] it was 91.3 ± 4.6 µM; in data set [4] it was 54.5 ± 2.9 µM; in data set [6], 65.5 ± 3.5 µM; in data set [7], 42.2 ± 2.6 µM.
For `O=C(CSc1nnc(NC(=O)Nc2ccc(Cl)cc2)s1)Nc1nc2ccccc2s1` [4d, N-(Benzo[d]thiazol-2-yl)-2-((5-(3-(4-chlorophenyl)ureido)-1,3,4-thiadiazol-2-yl)thio)acetamide], the half-maximal inhibitory concentration (IC50) in data set [1] (setting [10]) was 30.2 to 33.6 µM; in data set [3], 89.1 ± 4.3 µM; in data set [4], 33.6 ± 2 µM; in data set [6] it was 39.7 ± 2.3 µM; in data set [7], 30.2 ± 2.3 µM.
With `O=C(CSc1nnc(NC(=O)Nc2ccc(F)cc2)s1)Nc1nc2ccccc2s1` [4e, N-(Benzo[d]thiazol-2-yl)-2-((5-(3-(4-fluorophenyl)ureido)-1,3,4-thiadiazol-2-yl)thio)acetamide], the IC50 in data set [1] (setting [10]) is 63.4 to 82.5 µM; in data set [3] it was above 100 µM; in data set [4] it was 67.1 ± 3.4 µM; in data set [6], 82.5 ± 4.2 µM; in data set [7], 63.4 ± 3.4 µM.
In the case of `Cc1ccc2nc(NC(=O)CSc3nnc(NC(=O)Nc4ccccc4)s3)sc2c1` [4g, N-(6-Methylbenzo[d]thiazol-2-yl)-2-((5-(3-phenylureido)-1,3,4-thiadiazol-2-yl)thio)acetamide], the concentration for half-maximal inhibition (IC50) in data set [1] (setting [10]) is 16.5 to 22.9 µM; in data set [3], 79.4 ± 4 µM; in data set [4] it was 16.5 ± 1.2 µM; in data set [6], 19.6 ± 1.3 µM; in data set [7], 22.9 ± 1.8 µM.
Consider `Cc1ccc(NC(=O)Nc2nnc(SCC(=O)Nc3nc4ccc(C)cc4s3)s2)cc1` [4h, N-(6-Methylbenzo[d]thiazol-2-yl)-2-((5-(3-(p-tolyl)ureido)-1,3,4-thiadiazol-2-yl)thio)acetamide], for which the IC50 was 37.4 to 56.2 µM in data set [1] (setting [10]); 87.8 ± 4.4 µM in data set [3]; 40.6 ± 2.3 µM in data set [4]; 56.2 ± 3 µM in data set [6]; 37.4 ± 2.5 µM in data set [7].
Turning to `COc1ccc(NC(=O)Nc2nnc(SCC(=O)Nc3nc4ccc(C)cc4s3)s2)cc1` [4i, 2-((5-(3-(4-Methoxyphenyl)ureido)-1,3,4-thiadiazol-2-yl)thio)-N-(6-methylbenzo[d]thiazol-2-yl)acetamide], the IC50 in data set [1] (setting [10]) was 53.1 to 76.7 µM; in data set [3], 45.5 ± 2.6 µM; in data set [4] it was 59.5 ± 3.1 µM; in data set [6], 76.7 ± 3.9 µM; in data set [7], 53.1 ± 2.7 µM.
`Cc1ccc2nc(NC(=O)CSc3nnc(NC(=O)Nc4ccc(Cl)cc4)s3)sc2c1` [4j, 2-((5-(3-(4-Chlorophenyl)ureido)-1,3,4-thiadiazol-2-yl)thio)-N-(6-methylbenzo[d]thiazol-2-yl)acetamide]: the IC50 was above 100 µM in data set [3], 84.2 ± 4.2 µM in data set [4], above 100 µM in data set [6] and 78.1 ± 3.9 µM in data set [7].
Consider `Cc1ccc2nc(NC(=O)CSc3nnc(NC(=O)Nc4ccc(F)cc4)s3)sc2c1` [4k, 2-((5-(3-(4-Fluorophenyl)ureido)-1,3,4-thiadiazol-2-yl)thio)-N-(6-methylbenzo[d]thiazol-2-yl)acetamide], for which the IC50 in data set [3] was 58.5 ± 3.2 µM; in data set [4] it was 69.5 ± 3.5 µM; in data set [6], 92 ± 4.6 µM; in data set [7], 64.2 ± 3.7 µM.
As for `Cc1ccc2nc(NC(=O)CSc3nnc(NC(=O)Nc4ccc(C(F)(F)F)c(Cl)c4)s3)sc2c1` [4l, 2-((5-(3-(3-Chloro-4-(trifluoromethyl)phenyl)ureido)-1,3,4-thiadiazol-2-yl)thio)-N-(6-methylbenzo[d]thiazol-2-yl)acetamide], the IC50 was 3.58 to 15.4 µM in data set [1] (setting [8]); 9.46 to 15.4 µM in data set [1] (setting [10]); 47.5 ± 2.7 µM in data set [3]; 9.46 ± 0.6 µM in data set [4]; 13.5 ± 1 µM in data set [6]; 15.4 ± 1.2 µM in data set [7].
Turning to `O=C(CSc1nnc(NC(=O)Nc2ccccc2)s1)Nc1nc2ccc(Cl)cc2s1` [4m, N-(6-Chlorobenzo[d]thiazol-2-yl)-2-((5-(3-phenylureido)-1,3,4-thiadiazol-2-yl)thio)acetamide], the IC50 in data set [1] (setting [10]) was 28.9 to 34.4 µM; in data set [3], 74.5 ± 3.8 µM; in data set [4], 28.9 ± 1.9 µM; in data set [6] it was 34.4 ± 2.1 µM; in data set [7] it was 29.8 ± 2 µM.
For the compound `Cc1ccc(NC(=O)Nc2nnc(SCC(=O)Nc3nc4ccc(Cl)cc4s3)s2)cc1` [4n, N-(6-Chlorobenzo[d]thiazol-2-yl)-2-((5-(3-(p-tolyl)ureido)-1,3,4-thiadiazol-2-yl)thio)acetamide], the IC50 in data set [3] is above 100 µM; in data set [4], 36.7 ± 2.1 µM; in data set [6], 44.8 ± 2.5 µM; in data set [7] it was 32.8 ± 2.4 µM.
As for `COc1ccc(NC(=O)Nc2nnc(SCC(=O)Nc3nc4ccc(Cl)cc4s3)s2)cc1` [4o, N-(6-Chlorobenzo[d]thiazol-2-yl)-2-((5-(3-(4-methoxyphenyl)ureido)-1,3,4-thiadiazol-2-yl)thio)acetamide], the IC50 in data set [3] was 26.4 ± 1.8 µM; in data set [4], 43.5 ± 2.4 µM; in data set [6], 51.6 ± 2.8 µM; in data set [7], 35 ± 2.4 µM.
`O=C(CSc1nnc(NC(=O)Nc2ccc(Cl)cc2)s1)Nc1nc2ccc(Cl)cc2s1` [4p, N-(6-Chlorobenzo[d]thiazol-2-yl)-2-((5-(3-(4-chlorophenyl)ureido)-1,3,4-thiadiazol-2-yl)thio)acetamide]: the IC50 in data set [3] amounted to 94.1 ± 4.9 µM; in data set [4], 62.6 ± 3.2 µM; in data set [6], 71.3 ± 3.7 µM; in data set [7], 57 ± 3.1 µM.
Take `O=C(CSc1nnc(NC(=O)Nc2ccc(F)cc2)s1)Nc1nc2ccc(Cl)cc2s1` [4q, N-(6-Chlorobenzo[d]thiazol-2-yl)-2-((5-(3-(4-fluorophenyl)ureido)-1,3,4-thiadiazol-2-yl)thio)acetamide]: the IC50 is 21.7 to 27.4 µM in data set [1] (setting [10]); 49.7 ± 2.9 µM in data set [3]; 21.7 ± 1.5 µM in data set [4]; 25.4 ± 1.8 µM in data set [6]; 27.4 ± 2.2 µM in data set [7].
Take `O=C(CSc1nnc(NC(=O)Nc2ccc(C(F)(F)F)c(Cl)c2)s1)Nc1nc2ccc(Cl)cc2s1` [4r, 2-((5-(3-(3-Chloro-4-(trifluoromethyl)phenyl)ureido)-1,3,4-thiadiazol-2-yl)thio)-N-(6-chlorobenzo[d]thiazol-2-yl)acetamide]: the IC50 in data set [1] (setting [8]) was 3.58 to 15.4 µM; in data set [1] (setting [9]), 3.85 to 8.1 µM; in data set [2] it was 0.794 µM; in data set [3] it was 38.8 ± 2.2 µM; in data set [4], 3.85 ± 0.2 µM; in data set [5], 1.36 µM. Further, the results for the IC50 in data set [6] and in data set [7] were 7.81 ± 0.6 µM and 8.1 ± 0.6 µM, respectively.
